Test results: paper PMC8920097, “Prediction of hERG inhibition of drug discovery compounds using biomimetic HPLC measurements” (ADMET & DMPK, 2021)
Read-outs that look alike come from different tables or passages of the source.

How the values were obtained:
[1] = set-up: method as in doi:10.5599/admet.5.1.373; settings: calibration set; predetermined by isocratic measurements; cited from earlier work
[2] = set-up: method as in PMID 11472245; settings: calibration set, cited from earlier work
[3] = CHI lipophilicity by gradient reversed-phase HPLC (Gemini NX-C-18); settings: for chromatographic logD: Gemini NX-C-18 reversed-phase HPLC column, pH 7.4
Method in brief: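 Calibrated gradient retention times came from a 50 x 3 mm, 5 μm C-18 column run with a 0–100% linear acetonitrile gradient. A standard compound set converted these times to CHI values.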

[4] = target: human serum albumin (HSA) (Homo sapiens, UniProt P02768); test: Protein binding on Chiralpak HSA HPLC column; settings: pH 7.4, Chiralpak HSA
Procedure: The measurement of the biomimetic properties of the available drugs was conducted in our laboratories. Generic gradient HPLC methods were used to determine the chromatographic hydrophobicity Index (CHI) using mobile phases at three different pH values. The protein binding of the compounds was measured using immobilised human serum albumin (HSA), and alpha-1-acid-glycoprotein (AGP) stationary phases. The phospholipid-binding was measured using the immobilised artificial membrane (IAM) stationary phase. The aim was to establish relationships between the cardiotoxicity potential and the biomimetic binding properties of the drugs and to evaluate their predictive performance.

[5] = system: alpha-1-acid-glycoprotein (AGP); test: Protein binding on Chiralpak AGP HPLC column; settings: pH 7.4, Chiralpak AGP
Method in brief: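 Binding measured by gradient HPLC on immobilised HSA or AGP stationary phases.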

[6] = Phospholipid binding at pH 7.4 on IAM PC.DD2 HPLC column; type: physicochemical; set-up: key to CHI IAM: approximates acetonitrile concentration (%) in mobile phase at elution; settings: for CHI IAM: pH 7.4; for log k IAM: pH 7.4, derived from CHI IAM by equation 1
Method in brief: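 Gradient retention on IAM PC.DD2 column (100 x 4.6 mm) with 50 mM ammonium acetate pH 7.4, 1.5 mL/min, 6 min cycle. Retention calibrated against acetophenone homologues to give CHI IAM (approximate acetonitrile concentration at elution), converted to log k IAM by equation.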

[7] = Charge character of the drugs at pH 7.4; type: physicochemical
HSA [8] = settings: calibration set; log k = log (%binding/(101-%binding)) from literature % binding
hERG channel = settings: cited from earlier work
HSA [9] = settings: calibration set; equilibrium dialysis; literature; cited from earlier work
AGP [10] = settings: calibration set; equilibrium dialysis; literature; cited from earlier work
AGP [11] = test: Literature % binding to AGP by equilibrium dialysis (calibration set); settings: log k = log (%binding/(101-%binding)) from literature % binding
AGP [12] = system: AGP
[13] = literature values, mean where several reported, molar

Sequence of human serum albumin (HSA) (P02768 25-609): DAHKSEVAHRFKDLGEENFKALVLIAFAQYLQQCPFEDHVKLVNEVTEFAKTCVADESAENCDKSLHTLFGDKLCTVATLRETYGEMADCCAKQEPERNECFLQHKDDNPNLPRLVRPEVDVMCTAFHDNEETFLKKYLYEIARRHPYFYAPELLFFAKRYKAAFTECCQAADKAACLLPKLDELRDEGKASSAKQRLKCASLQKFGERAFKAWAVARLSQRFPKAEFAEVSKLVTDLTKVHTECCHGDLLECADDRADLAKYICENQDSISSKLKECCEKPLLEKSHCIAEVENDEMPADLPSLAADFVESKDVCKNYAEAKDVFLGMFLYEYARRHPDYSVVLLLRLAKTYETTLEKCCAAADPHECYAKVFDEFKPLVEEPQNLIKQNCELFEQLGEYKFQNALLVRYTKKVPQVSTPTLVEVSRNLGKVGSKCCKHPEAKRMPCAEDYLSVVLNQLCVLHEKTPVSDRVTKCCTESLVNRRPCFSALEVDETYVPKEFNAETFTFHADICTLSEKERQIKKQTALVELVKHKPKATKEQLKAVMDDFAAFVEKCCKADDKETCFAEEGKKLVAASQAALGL

| Compound | CHI IAM [1] | CHI at pH 2.6 [2] | CHI at pH 7.4 [2] | CHI at pH 10.5 [2] | log k HSA (HSA [8]) | % AGP (AGP [10]) [%] | log k AGP (AGP [11]) | other results |
| --- | --- | --- | --- | --- | --- | --- | --- | --- |
| CC(=O)Nc1ccccc1 [Acetanilide] | 11.5 |  |  |  |  |  |  |  |
| CC(=O)c1ccccc1 [Acetophenone] | 17.2 | 64.1 | 65.1 | 64.1 |  |  |  |  |
| CCCC(=O)c1ccccc1 [Butyrophenone] | 32.0 | 87.3 | 87.5 | 87.3 |  |  |  |  |
| NC(=O)N1c2ccccc2C=Cc2ccccc21 [Carbamazepine] |  |  |  |  | 0.5 | 65.0 | 0.3 | chromatographic logD [3]: 1.22; chromatographic logP ([3]; reversed-phase HPLC, Gemini NX-C-18 column (50 x 3 mm, 5 µm)): 1.33; log k HSA [4]: 0.07; log k AGP [5]: -0.85; CHI IAM [6]: 23.98; log k IAM [6]: 1.53; Charge [7]: Neutral; hERG pIC50 (hERG channel; [13]): 3.98; %HSA (HSA [9]): 75.0% |
| O=C(O)Cc1ccccc1Nc1c(Cl)cccc1Cl [Diclofenac] |  |  |  |  |  |  | 0.2 |  |
| CCCCCCC(=O)c1ccccc1 [Heptanophenone] | 45.7 |  |  |  |  |  |  |  |
| CCCCCC(=O)c1ccccc1 [Hexanophenone] | 41.8 |  |  |  |  |  |  |  |
| COc1ccc2c(c1)c(CC(=O)O)c(C)n2C(=O)c1ccc(Cl)cc1 [Indomethacin] |  |  |  |  | 1.8 | 56.0 | 0.1 | chromatographic logP [3]: 3.31; chromatographic logD [3]: 1.47; log k AGP [5]: 0.18; CHI IAM [6]: 30.11; log k IAM [6]: 1.81; Charge [7]: Acidic; hERG pIC50 (hERG channel): 3.72 |
| COC(=O)C1=C(C)NC(C)=C(C(=O)OCCN(C)Cc2ccccc2)C1c1cccc([N+](=O)[O-])c1 (stereo not shown) [Nicardipine] |  |  |  |  | 1.2 | 87.0 | 0.8 |  |
| CNC(=C[N+](=O)[O-])NCCSCc1csc(CN(C)C)n1 [Nizatidine] |  |  |  |  | -0.6 | 37.1 | -0.2 | %HSA (HSA [9]): 20.4% |
| CCCCCCCC(=O)c1ccccc1 [Octanophenone] | 49.4 |  |  |  |  |  |  |  |
| CC(=O)Nc1ccc(O)cc1 [Paracetamol] | 2.9 |  |  |  | -0.8 | 3.2 | -1.5 | %HSA (HSA [9]): 14.0% |
| Cn1c(=O)c2nc(-c3ccccc3)[nH]c2n(C)c1=O [Phenyl theophylline] |  | 51.7 | 51.2 | 51.3 |  |  |  |  |
| CCC(=O)c1ccccc1 [Propiophenone] | 25.9 | 77.4 | 77.4 | 77.4 |  |  |  |  |
| CC(C)NCC(O)COc1cccc2ccccc12 (stereo not shown) [Propranolol] |  |  |  |  | 0.3 | 86.0 | 0.8 | log k AGP [5]: 0.84; log k IAM [6]: 2.36; Charge [7]: Basic; %HSA (HSA [9]): 66.6% |
| Cn1c(=O)c2[nH]cnc2n(C)c1=O [Theophylline] |  | 17.9 | 18.4 | 5.0 |  |  |  |  |
| COc1cc(Cc2cnc(N)nc2N)cc(OC)c1OC [Trimethoprim] |  |  |  |  | -0.2 | 46.2 | -0.1 | log k HSA [4]: -0.05; log k AGP [5]: -0.07; log k IAM [6]: 1.01; hERG pIC50 (hERG channel; [13]): 3.62; %HSA (HSA [9]): 37.6% |
| CCCCC(=O)c1ccccc1 [Valerophenone] | 37.3 | 96.4 | 96.2 | 96.4 |  |  |  |  |
| CC(=O)CC(c1ccccc1)c1c(O)c2ccccc2oc1=O (stereo not shown) [Warfarin] |  |  |  |  | 1.5 | 83.2 |  | log k AGP (AGP [12]): 0.7 |
